Reference: PMC12627627 (Nature Communications, 2025)
“And” between values parts separate entries of the source, which are not always exact repeats. Equal values may be shown once.

How the values were obtained:
[1] = parameters: method as in PMID 1729917, PMID 2790379; conditions: water-soluble analog compared with DAN; cited from earlier work
[2] = molecular target: T1, RyR1 W995A (Oryctolagus cuniculus, UniProt P11716, W996A); test: Time-lapse [Ca2+]ER measurement, HEK293 cells expressing RyR1 W995A; format: cell-based; conditions: 4 mM caffeine; for ER luminal [Ca2+] change (F/F0): Fig. 5H source data, RyR1-W995A, single replicates
T1 construct: expressed in transfected cells
Procedure: (§1) HEK293 cells stably expressing R-CEPIA1er and RyRs (WT RyR1, RyR1-W881A, RyR1-W995A, RyR1-R2163C, and WT RyR2)[26],[27] were used in this study. Briefly, the cells were seeded at a density of 2 × 10⁴ cells/well in a 96-well black, clear-bottom plate (Corning). Doxycycline (2 µg/mL) was added 12 h after seeding, and the medium was replaced 24 h later with HEPES-buffered Krebs solution (5 mM HEPES, pH 7.4; 140 mM NaCl; 5 mM KCl; 2 mM CaCl₂; 1 mM MgCl₂; and 11 mM glucose). Fluorescence measurements were conducted using a FlexStation 3 fluorometer (Molecular Devices) at 37 °C. The R-CEPIA1er was excited at 560 nm, emitted at 610 nm, and captured every 10 seconds over 300 seconds. Different concentrations of compound, dissolved in buffer containing 1% DMSO, were added 100 s after recording began. The fluorescence changes (F/F₀) were calculated by dividing the average fluorescence of the last 100 seconds (F) by that of the first 100 seconds (F₀). All measurements were performed in triplicate.

[3] = tested on: WT RyR2; test: Time-lapse [Ca2+]ER measurement, HEK293 cells expressing WT RyR2; format: cell-based; conditions: for ER luminal [Ca2+] change (F/F0): Fig. 5D source data, single replicates
Procedure: as §1

[4] = molecular target: T2, WT RyR1 (Oryctolagus cuniculus, UniProt P11716); test: Time-lapse [Ca2+]ER measurement, HEK293 cells expressing WT RyR1; format: cell-based; conditions: Fig. 5H source data, 4 mM caffeine, single replicates
T2 construct: expressed in transfected cells

[5] = molecular target: T3, RyR1 W881A (Oryctolagus cuniculus, UniProt P11716, W882A); test: Time-lapse [Ca2+]ER measurement, HEK293 cells expressing RyR1 W881A; format: cell-based; conditions: 4 mM caffeine; for ER luminal [Ca2+] change (F/F0): Fig. 5H source data, RyR1-W881A, single replicates
T3 construct: expressed in transfected cells
Procedure: as §1

## O=C1CN(/N=C/c2ncc(-c3ccc(Br)cc3)o2)C(=O)N1 [AZU, Azumolene]
[1]
  solubility relative to DAN: approximately 30 fold

## O=C(C[C@@H](NCCCO)C(=O)O)Nc1ccc2ccccc2c1 [RI-2]
[2]; RI-2 0.1 uM
  ER luminal [Ca2+] change (F/F0): 1.018 and 1 and 0.9822
[2]; RI-2 0.3 uM
  ER luminal [Ca2+] change (F/F0): 1.035 and 1.023 and 0.9731
[2]; RI-2 1 uM
  ER luminal [Ca2+] change (F/F0): 1.011 and 1.046 and 0.9965
[2]; RI-2 3 uM
  ER luminal [Ca2+] change (F/F0): 1.0547 and 1.017 and 1.01
[2]; RI-2 10 uM
  ER luminal [Ca2+] change (F/F0): 1.05 and 1.027 and 0.98
[2]; RI-2 30 uM
  ER luminal [Ca2+] change (F/F0): 1.073 and 0.9504 and 1.033
[2]; RI-2 100 uM
  ER luminal [Ca2+] change (F/F0): 0.9659 and 1.079 and 1.107
[2]; RyR1 W995A
  inhibitory effect in time-lapse ER Ca2+ measurements: completely lost
[3]; RI-2 0.1 uM
  ER luminal [Ca2+] change (F/F0): 1.012 and 0.991 and 0.9966
[3]; RI-2 0.3 uM
  ER luminal [Ca2+] change (F/F0): 1.053 and 1.031 and 0.9893
[3]; RI-2 1 uM
  ER luminal [Ca2+] change (F/F0): 1.071 and 0.9532 and 1.019
[3]; RI-2 3 uM
  ER luminal [Ca2+] change (F/F0): 0.989 and 1.026 and 1.009
[3]; RI-2 10 uM
  ER luminal [Ca2+] change (F/F0): 1.0308 and 1.04 and 0.9817
[3]; RI-2 30 uM
  ER luminal [Ca2+] change (F/F0): 1.051 and 0.9858 and 1.027
[3]; RI-2 100 uM
  ER luminal [Ca2+] change (F/F0): 1.1169 and 1.011 and 1.1
[3]; dose-dependent [Ca2+]ER measurements
  effect on ER luminal [Ca2+]: no significant effect
[4]; RI-2 0.1 uM
  ER luminal [Ca2+] change (F/F0): 0.9624 and 0.9803 and 0.9793
[4]; RI-2 0.3 uM
  ER luminal [Ca2+] change (F/F0): 0.9865 and 0.9725 and 0.9809
[4]; RI-2 1 uM
  ER luminal [Ca2+] change (F/F0): 1.001 and 1.0002 and 0.9956
[4]; RI-2 3 uM
  ER luminal [Ca2+] change (F/F0): 1.043 and 1.036 and 1.039
[4]; RI-2 10 uM
  ER luminal [Ca2+] change (F/F0): 1.092 and 1.122 and 1.066
[4]; RI-2 30 uM
  ER luminal [Ca2+] change (F/F0): 1.229 and 1.248 and 1.218
[4]; RI-2 100 uM
  ER luminal [Ca2+] change (F/F0): 1.681 and 1.622 and 1.659
[5]; RI-2 0.1 uM
  ER luminal [Ca2+] change (F/F0): 0.9939 and 0.9815 and 1.025
[5]; RI-2 0.3 uM
  ER luminal [Ca2+] change (F/F0): 0.9808 and 0.9609 and 0.9633
[5]; RI-2 1 uM
  ER luminal [Ca2+] change (F/F0): 0.959 and 0.9789 and 1.039
[5]; RI-2 3 uM
  ER luminal [Ca2+] change (F/F0): 0.968 and 1.003 and 1.025
[5]; RI-2 10 uM
  ER luminal [Ca2+] change (F/F0): 0.9988 and 0.9974 and 1.012
[5]; RI-2 30 uM
  ER luminal [Ca2+] change (F/F0): 1.035 and 0.9972 and 1.041
[5]; RI-2 100 uM
  ER luminal [Ca2+] change (F/F0): 0.9975 and 1.115 and 0.9708
[5]; RyR1 W881A
  inhibitory effect in time-lapse ER Ca2+ measurements: completely lost
